“Also recorded” adds a separate entry of the source.
B1: FL-LPL: HA-TAT fused full-length L-plastin protein (70-75 kDa), purified from bacterial expression vector pTAT-HA (protein, UniProt P13796 1-627, looked up)
chain: MARGSVSDEEMMELREAFAKVDTDGNGYISFNELNDLFKAACLPLPGYRVREITENLMATGDLDQDGRISFDEFIKIFHGLKSTDVAKTFRKAINKKEGICAIGGTSEQSSVGTQHSYSEEEKYAFVNWINKALENDPDCRHVIPMNPNTNDLFNAVGDGIVLCKMINLSVPDTIDERTINKKKLTPFTIQENLNLALNSASAIGCHVVNIGAEDLKEGKPYLVLGLLWQVIKIGLFADIELSRNEALIALLREGESLEDLMKLSPEELLLRWANYHLENAGCNKIGNFSTDIKDSKAYYHLLEQVAPKGDEEGVPAVVIDMSGLREKDDIQRAECMLQQAERLGCRQFVTATDVVRGNPKLNLAFIANLFNRYPALHKPENQDIDWGALEGETREERTFRNWMNSLGVNPRVNHLYSDLSDALVIFQLYEKIKVPVDWNRVNKPPYPKLGGNMKKLENCNYAVELGKNQAKFSLVGIGGQDLNEGNRTLTLALIWQLMRRYTLNILEEIGGGQKVNDDIIVNWVNETLREAKKSSSISSFKDPKISTSLPVLDLIDAIQPGSINYDLLKTENLNDDEKLNNAKYAISMARKIGARVYALPEDLVEVNPKMVMTVFACLMGKGMKRV
modifications: full-length HA-TAT tag
notes: HA-TAT fused full-length L-plastin protein (70-75 kDa), purified from bacterial expression vector pTAT-HA
B2: mutated FL-LPL: TAT-fused full-length L-plastin with Ser-5 and Ser-7 mutated to Ala-5 and Ala-7 (protein, UniProt P13796 1-627, looked up, variant S5A S7A)
chain: MARGAVADEEMMELREAFAKVDTDGNGYISFNELNDLFKAACLPLPGYRVREITENLMATGDLDQDGRISFDEFIKIFHGLKSTDVAKTFRKAINKKEGICAIGGTSEQSSVGTQHSYSEEEKYAFVNWINKALENDPDCRHVIPMNPNTNDLFNAVGDGIVLCKMINLSVPDTIDERTINKKKLTPFTIQENLNLALNSASAIGCHVVNIGAEDLKEGKPYLVLGLLWQVIKIGLFADIELSRNEALIALLREGESLEDLMKLSPEELLLRWANYHLENAGCNKIGNFSTDIKDSKAYYHLLEQVAPKGDEEGVPAVVIDMSGLREKDDIQRAECMLQQAERLGCRQFVTATDVVRGNPKLNLAFIANLFNRYPALHKPENQDIDWGALEGETREERTFRNWMNSLGVNPRVNHLYSDLSDALVIFQLYEKIKVPVDWNRVNKPPYPKLGGNMKKLENCNYAVELGKNQAKFSLVGIGGQDLNEGNRTLTLALIWQLMRRYTLNILEEIGGGQKVNDDIIVNWVNETLREAKKSSSISSFKDPKISTSLPVLDLIDAIQPGSINYDLLKTENLNDDEKLNNAKYAISMARKIGARVYALPEDLVEVNPKMVMTVFACLMGKGMKRV
modifications: full-length HA-TAT tag

How the values were obtained:
osteoclasts = assay: Formation of nascent sealing zones (NSZs) in osteoclasts plated on dentine slices (actin staining); assay type: cell-based, mouse; conditions: for formation of NSZs: sNT-LPL peptides, dentine; for formation of NSZs, time course: 3, 6 and 10 hours, LPL and integrin αv immunostaining; for number of NSZs: dentine slices 2-3 hours, versus basal level
Method: The vector pTAT-HA has an N-terminal 6-histidine leader (Nagahara et al., 1998, Nature Medicine, 4:1449-1452). […] For transduction with TAT-fused peptides (100-150 nM), osteoclasts were first kept in serum-free α-MEM for two hours. Afterward, TAT proteins of interest, bone particles, and TNF-α were added to cells in serum-free α-MEM Lysates were made from these cells for immunoprecipitation and immunoblotting analyses. Osteoclasts plated on dentine slices in the presence of TAT-proteins of interest and TNF-α for 3-6 hours or 12-14 hours were used for immunostaining or actin staining analyses. Osteoclast cultures treated only with TNF-α were used as controls.
Osteoclast precursors (10^5 cells/coverslips) were cultured on glass cover slips or dentine slices. Fluorescent labeling was done in osteoclasts transduced or untransduced with TAT-proteins. HA or TAT antibody was used to identify the transduced peptides of interest; rhodamine phalloidin was used to determine actin organization (Chellaiah et al., 2000, J. Cell Biol., 148: 665-678; Chellaiah et al., 2000, J. Biol. Chem., 275: 11993-12002). Immunostained and actin stained osteoclasts were photographed with a Bio-Rad confocal laser-scanning microscope. Images were stored in TIF image format and processed by Adobe Photoshop (Adobe Systems Inc., Mountain View. Calif.).
After cells were kept in the serum-free α-MEM medium for two hours, LPL peptides of interest were added to a final concentration of 100-150 nM to cells in serum-free media (Chellaiah et al, 2000, J. Biol. Chem., 275: 11993-12002). Osteoclasts transduced with peptides of interest and added with bone particles in the presence of TNF-α for 3-4 hours or 12-14 hours were used for lysate preparations. Cells plated on coverslips and treated with peptides were used for actin staining to detect podosomes. […] These cells were used for Actin staining with rhodamine-phalloidin or immunostaining analyses (Chellaiah et al., 2000, J. Biol. Chem., 275: 11993-12002; Chellaiah et al., 2000, J. Cell. Biol., 148: 665-678; Chellaiah et al., 2003, J Biol Chem 278: 29086-29097).
Osteoclasts were fixed with 3% paraformaldehyde for 20 minutes and permeabilized with 0.1% Triton X-100 in PBS for 5 minutes. Subsequently, osteoclasts were stained with a primary (HA or integrin αv) and secondary antibody as described (Chellaiah et al., 2003, J Biol Chem 278: 29086-29097). Actin staining was done with rhodamine-phalloidin as described (Chellaiah et al., 2000, J. Biol. Chem., 275: 11993-12002; Chellaiah et al., 2000, J. Cell Biol., 148: 665-678). Cells were washed and mounted on a slide in a mounting solution (Vector Laboratories) and sealed with nail polish. Immunostained osteoclasts were photographed with a Bio-Rad and Nikon confocal microscope. Images were stored in TIF image format and processed by Adobe Photoshop (Adobe Systems Inc., Mountain View, Calif.).

[1] = test system: osteoclasts derived from RAW cells; assay: NSZs and sealing ring formation in osteoclasts derived from RAW cells; assay type: cell-based
Text: (§1) C57/BL6 mice were used for osteoclast preparation as described previously (Chellaiah et al., 2000, J. Cell Biol., 148: 665.678; Chellaiah et al., 2007, J. Biol. Chem., 282: 10104-10116). Osteoclasts were generated in vitro using mouse bone marrow (BM) cells as described (Chellaiah et al., 2000, J. Cell Biol., 148: 665-678; Chellaiah et al., 2007, J. Biol. Chem., 282: 10104.10116). Osteoclasts differentiated from RAW 264.7 cells were also used to corroborate a few of the observations made with osteoclasts derived from mouse BM cells. Osteoclasts from RAW 264.7 cells were generated as described previously (Gupta et al., 2003, J Bone Miner Res 18: 669-685). Conditions were established that offer >90% population of mature multinucleated osteoclasts from both mouse bone marrow and RAW cells.
After cells were kept in the serum-free α-MEM medium for two hours, LPL peptides of interest were added to a final concentration of 100-150 nM to cells in serum-free media (Chellaiah et al, 2000, J. Biol. Chem., 275: 11993-12002). Osteoclasts transduced with peptides of interest and added with bone particles in the presence of TNF-α for 3-4 hours or 12-14 hours were used for lysate preparations. Cells plated on coverslips and treated with peptides were used for actin staining to detect podosomes. […]

endogenous LPL = assay: Phosphorylation of endogenous LPL in osteoclasts derived from RAW cells; assay type: cell-based; conditions: bone particles and TNF-α
Text: as §1
After flushing the marrow cells for osteoclast differentiation, long mouse bones (free of cells inside and muscles outside) were washed extensively with PBS and kept in ethanol until use. Long bones were air-dried in the hood and homogenized by a mini blender. Bone particles were sieved, and bone particles 60-80 μm in size were used for experiments. The multinucleated osteoclasts were seen from day four onward from mouse BM or RAW cells. At this stage, osteoclasts were added with sterile native bone particles (100 μg/ml medium) for 3-4 hours or 12-14 hours in the presence of TNF-α (20 ng/ml). […]

integrin αv = assay: Localization of integrin αv in NSZs (immunostaining with LPL and integrin αv antibody); assay type: cell-based, mouse; conditions: 3, 6 and 10 hours
Method: After cells were kept in the serum-free α-MEM medium for two hours, LPL peptides of interest were added to a final concentration of 100-150 nM to cells in serum-free media (Chellaiah et al, 2000, J. Biol. Chem., 275: 11993-12002). Osteoclasts transduced with peptides of interest and added with bone particles in the presence of TNF-α for 3-4 hours or 12-14 hours were used for lysate preparations. Cells plated on coverslips and treated with peptides were used for actin staining to detect podosomes. After transduction for 30 min., osteoclasts were re-plated on dentine slices with respective LPL peptide and TNF-α for 3-6 hours or 12-14 hours. These cells were used for Actin staining with rhodamine-phalloidin or immunostaining analyses (Chellaiah et al., 2000, J. Biol. Chem., 275: 11993-12002; Chellaiah et al., 2000, J. Cell. Biol., 148: 665-678; Chellaiah et al., 2003, J Biol Chem 278: 29086-29097).
Osteoclasts were fixed with 3% paraformaldehyde for 20 minutes and permeabilized with 0.1% Triton X-100 in PBS for 5 minutes. Subsequently, osteoclasts were stained with a primary (HA or integrin αv) and secondary antibody as described (Chellaiah et al., 2003, J Biol Chem 278: 29086-29097). Actin staining was done with rhodamine-phalloidin as described (Chellaiah et al., 2000, J. Biol. Chem., 275: 11993-12002; Chellaiah et al., 2000, J. Cell Biol., 148: 665-678). […]

Molecule	formation of NSZs (osteoclasts)	formation of NSZs, time course (osteoclasts)	number of NSZs (osteoclasts; TNF-α)	further results
MARGAVADEE [Peptide P2, TAT-fused sNT-LPL peptide, Ser-5 and Ser-7 substituted to Alanine (A5A7)]	no inhibitory effect			
MARGSVSDEE [Peptide P1, TAT-fused small molecular weight (10aa) amino-terminal LPL peptide, unsubstituted (S5S7)]	considerable decrease	attenuates		formation of NSZs [1]: significant decrease; formation of sealing rings [1]: significant decrease; phosphorylation of endogenous (cellular) LPL (endogenous LPL): significant decrease; also recorded: reduced; localization of integrin αv in NSZs / colocalization with LPL (integrin αv): abrogated
SRSGMVEEAD [Peptide P5, TAT-fused scrambled sNT-LPL peptide, control, reference compound]	no inhibitory effect	time-dependent organization		
B1			substantial increase above the basal level	
B2			more or less equal	formation of NSZs, lower magnification (FIG. 7) (osteoclasts; dentine slices 3-4 hours, TNF-α): did not affect
